Publication PMC12520456, “Regulating Enzyme Activity via Microaggregates Mediated by Phase Separation” (Advanced Science, 2025)
Non-standard residues stand in square brackets, D forms with d. Residues, ends and D or L forms follow the SMILES beside them.

How the values were obtained:
[1] = system: postoperative pancreatic fistula (POPF); assay: Rat pancreatic splenic duct transection (non-lethal) POPF model; type: in vivo
Method: To investigate the biofunction of DPMD in preventing POPF, a slowly occurring POPF model was established in rats by transecting the peripancreatic splenic duct to induce a continuous but low leakage of pancreatic juice (Figure 3A). Following surgical modeling, DPMD, its L‐enantiomer LPMD, or normal saline (Ctrl) were topically applied on the incision site. After post operation, chymotrypsin leakage was assessed using a specific fluorescent dye. […] By monitoring ascitic and serum amylase and lipase levels over a span of 7 days following surgical modeling (Figure 3C), we were able to make inferences about the pathological score (Figure 3D) and the occurrence of POPF (Figure 3E). The noteworthy observation is that all the mock‐treated rats experienced POPF on day 3 following surgical modeling, and this phenomenon persisted until day 5 (Figure 3E). In contrast, LPMD reduced both the occurrence and severity of POPF, resulting in 33% of rats being healthy and only 67% experiencing minor POPF on day 3; furthermore, all rats fully recovered by day 5 (Figure 3E). […] Furthermore, both DPMD and LPMD treatments decreased inflammation markers including TNF‐α, IL‐6, IL‐8, IL‐33, sST2, CRP, HMGB1, MPO, PAF, PCT, PGE2, and SAA in rats’ serum (Figure 3G). […]
was performed using an Annexin V-Alexa Fluor 647/PI kit (Solarbio) according to the manufacturer’ s protocol. Briefly, adherent cells were detached with 0.25% EDTA-free trypsin, combined with floating cells from the supernatant. The pellet was washed twice with cold PBS and resuspended in 100 μL of 1× binding buffer. After adding Annexin V-647 and PI, cells were incubated for 15 min in the dark at room temperature. Samples were analyzed within 1h on a Sony MA900 flow cytometer.
3.12 Animal fluorescence imaging
Rats were intraperitoneally injected with 1 mL of rhodamine-labeled 0.5% (w/v) DPMD. […] The fluorescence emission intensity of the organs was measured using IVIS Spectrum system (PerkinElmer). […]

[2] = Turbidity and CLSM phase separation of DPMD with trypsin/chymotrypsin; type: physicochemical
From the text: Next, these intriguing microaggregates were further investigated using fluorescence recovery after photobleaching (FRAP) experiments. […] To directly visualize the liquid–solid phase separation process, we performed time‐lapse confocal microscopy on mixtures of DPMD and trypsin/chymotrypsin. Initially, numerous small, spherical DPMD‐rich microdroplets appeared upon enzyme addition and gradually grew into larger droplets within minutes (Figure S5A, Supporting Information). […] We next examined whether the enzyme–peptide aggregates remain stable under varying physiological conditions, such as changes in pH and enzyme concentration.
Figure S5. (A) The CLSM images of DPMD with enzyme and DPMD without enzyme under different time. (B) Turbidity measurements result illustrating the phase separation of DPMD -treated trypsin and chymotrypsin at different concentrations or pH shifts . % represents the mass fraction of the DPMD/trypsin/chymotrypsin . (C) The CLSM images of DPMD with enzyme, DPMD without enzyme and DPMD with enzyme and aprotinin. (D&E) The CLSM images of DPMD with enzyme and DPMD without enzyme under different pH (D) or enzyme concentrations […]
(1 picture or pasted object on this page, not shown here)
0.22μm filter to remove residue. The calcium content of the supernatant was measured using the Calcium ion detection kit (Beyotime) according to the recommended method. […]
Peptide and enzyme solutions were prepared at varying concentrations and mixed at a 1:1 volume ratio. Solution turbidity was quantitatively assessed by monitoring absorbance at 405 nm using a BioTek spectrophotometer. For fluorescence-based characterization, peptides were labeled with FITC while enzymes were labeled with Cy5. […] For fluorescence recovery after photobleaching (FRAP) analysis, enzyme-aggregated patches were selectively bleached at 60% laser power using 488/640 nm lasers for 10 s, followed by time-lapse imaging at 1-min intervals. […] Fluorescence intensity in the photobleached region was measured using ImageJ software , with values normalized to pre-bleach baselines. […]

In the case of CC[C@@H](C)[C@@H](NC(=O)[C@@H](CCC(N)=O)NC(=O)[C@H](NC(=O)[C@@H](Cc1ccc(O)cc1)NC(=O)CNC(=O)[C@@H](CC(C)C)NC(=O)[C@H](NC(=O)[C@@H](CO)NC(=O)CNC(=O)[C@@H](C)NC(=O)[C@@H](CC(=O)O)NC(=O)[C@@H](C)NC(=O)[C@@H](CCCNC(=N)N)NC(=O)[C@@H](C)NC(=O)[C@@H](CC(=O)O)NC(=O)[C@@H](C)NC(=O)[C@@H](CCCNC(=N)N)NC(=O)[C@@H](C)NC(=O)[C@@H](CC(=O)O)NC(=O)[C@@H](C)NC(=O)[C@@H](CCCNC(=N)N)NC(=O)[C@@H](C)NC(=O)[C@@H](CC(=O)O)NC(=O)[C@@H](C)NC(=O)[C@H](N)CCCNC(=N)N)C(C)C)[C@H](C)CC)C(=O)N[C@H](CCCNC(=N)N)C(=O)O [DPMD, Ac‐(D‐RADA)4‐CONH2] (H-[dR][dA][dD][dA][dR][dA][dD][dA][dR][dA][dD][dA][dR][dA][dD][dA]G[dS][dV][dL]G[dY][dI][dQ][dI][dR]-OH; N-terminus and C-terminus assumed), the “H&E staining of pancreatic tissue” value ([1]; Figure S10) is reported as “reduced edema and inflammatory cell infiltration”, the “chymotrypsin leakage by fluorescent dye imaging” value ([1]; topical application at incision site, Figure 3B) is reported as “nearly complete suppression of leakage” and the “serum inflammation markers (TNF-α, IL-6, IL-8, IL-33, sST2, CRP, HMGB1, MPO, PAF, PCT, PGE2, SAA)” value ([1]; within 7 days after surgery, Figure 3G) is reported as “decreased”. The “phase separation by turbidity” value ([2]; absorbance at 405 nm, DPMD and trypsin/chymotrypsin mixtures 1:1 volume, across a range of pH levels and enzyme concentrations, Figure S5B) was “robust phase separation”, the “phase separation with aprotinin-neutralized protease” value ([2]; enzyme pre-incubated with aprotinin, CLSM, Figure S5C) was “no significant phase separation occurred” and the “aggregate formation at shifted pH” value ([2]; pH 5.6 and pH 8.4, mixtures with trypsin/chymotrypsin, Figure S5D) was “still became cloudy and formed microscopically visible droplets/aggregates”.
